This note sets out measurements from patent US6599925B2 (Wyeth, priority 2001, dated 2003).

What is called melting point is the temperature of the solid-liquid transition. By IC50 is commonly meant the midpoint of a concentration-inhibition curve. What is called inhibition is the relative decrease from the control value, in per cent.

Structures can show the parent of a compound that is named as a salt.

For data set [1], the target named is T1, recombinant human plasminogen activator inhibitor-1 (PAI-1) (Homo sapiens, UniProt P05121).
T1 construct: purchased Molecular Innovations, Royal Oak, Mich
In words: Primary Screen for the PAI-1 Inhibition (chromogenic tPA assay). Conditions: for IC50: footnote b: determined by a modification of the Primary Screen for PAI-1 Inhibition; for inhibition at 25 µM: 25 μM test compound. The format is biochemical. Here is the method:
Primary Screen for the PAI-1 Inhibition
Test compounds are dissolved in DMSO at a final concentration of 10 mM, then diluted 100×in physiologic buffer. The inhibitory assay is initiated by the addition of the test compound (1-100 μM final concentration, maximum DMSO concentration of 0.2%) in a pH 6.6 buffer containing 140 nM recombinant human plasminogen activator inhibitor-1 (PAI-1; Molecular Innovations, Royal Oak, Mich.). Following a 1 hour incubation at room temperature, 70 nM of recombinant human tissue plasminogen activator (tPA) is added, and the combination of the test compound, PAI-1 and tPA is incubated for an additional 30 minutes. Following the second incubation, Spectrozyme-tPA (American Diagnostica, Greenwich, Conn.), a chromogenic substrate for tPA, is added and absorbance read at 405 nm at 0 and 60 minutes. Relative PAI-1 inhibition is equal to the residual tPA activity in the presence of the test compounds and PAI-1. Control treatments include the complete inhibition of tPA by PAI-1 at the molar ratio employed (2:1), and the absence of any effect of the test compound on tPA alone.

The target of the next data set is human PAI-1 (Homo sapiens, UniProt P05121). The data set is described as follows: Assay for determining IC50 of inhibition of PAI-1 (Antibody Assay). The conditions noted are these: footnote a: determined by the Antibody Assay; active PAI-1 bound to tPA-coated plate, pH 7.5. The format is binding. Here is the method:
Assay for Determining IC50 of Inhibition of PAI-1
This assay is based upon the non-SDS dissociable interaction between tPA and active PAI-1. Assay plates are initially coated with human tPA (10 μg/ml). Test compounds are dissolved in DMSO at 10 mM, then diluted with physiologic buffer (pH 7.5) to a final concentration of 1-50 μM. The test compounds are incubated with human PAI-1 (50 ng/ml) for 15 minutes at room temperature. The tPA-coated plate is washed with a solution of 0.05% Tween 20 and 0.1% BSA, then the plate is blocked with a solution of 3% BSA. An aliquot of the test compound/PAI-1 solution is then added to the tPA-coated plate, incubated at room temperature for 1 hour, and washed. Active PAI-1 bound to the plate is assessed by adding an aliquot of a 1:1000 dilution of the 33B8 monoclonal antibody against human PAI-1, and incubating the plate at room temperature for 1 hour (Molecular Innovations, Royal Oak, Mich.). The plate is again washed, and a solution of goat anti-mouse IgG-alkaline phosphatase conjugate is added at a 1:50,000 dilution in goat serum. The plate is incubated 30 minutes at room temperature, washed, and a solution of alkaline phosphatase substrate is added. The plate is incubated 45 minutes at room temperature, and color development is determined at OD405nm. The quantitation of active PAI-1 bound to tPA at varying concentrations of the test compound is used to determine the IC50. Results are analyzed using a logarithmic best-fit equation. The assay sensitivity is 5 ng/ml of human PAI-1 as determined from a standard curve ranging from 0-100 ng/ml.

Chain of human PAI-1 (P05121 24-402): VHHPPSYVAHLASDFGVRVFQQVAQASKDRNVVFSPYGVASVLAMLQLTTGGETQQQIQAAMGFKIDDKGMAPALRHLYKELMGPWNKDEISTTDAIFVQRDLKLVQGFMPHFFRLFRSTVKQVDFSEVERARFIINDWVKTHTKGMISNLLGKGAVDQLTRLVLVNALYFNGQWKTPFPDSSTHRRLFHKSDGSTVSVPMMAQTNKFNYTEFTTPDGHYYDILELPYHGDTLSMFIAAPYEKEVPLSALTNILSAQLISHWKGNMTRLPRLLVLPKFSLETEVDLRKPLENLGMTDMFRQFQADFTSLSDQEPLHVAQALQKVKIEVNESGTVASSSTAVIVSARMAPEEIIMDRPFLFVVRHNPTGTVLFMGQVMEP
T1 sequence (P05121 24-402): as above

As to `CCCCC(=O)c1c(-c2ccc3c(-c4ccc(C(F)(F)F)cc4)c(OCC(=O)O)ccc3c2)oc2ccccc12` (as salt: sodium) [Example 15, 2-({6-(3-Pentanoyl-1-benzofuran-2-yl)-1-[4-(trifluoromethyl)phenyl]-2-naphthyl}oxy) acetic acid, sodium salt], the melting point was 274 to 275 °C (dec.).

In the case of `CCCCC(=O)c1c(-c2ccc3c(Br)c(OCc4nnn[nH]4)ccc3c2)oc2ccccc12` [Example 1, 1-{2-[5-Bromo-6-(1H-1,2,3,4-tetraazol-5-ylmethoxy)-2-naphthyl]-1-benzofuran-3-yl}-1-pentanone], the half-maximal inhibitory concentration (IC50) in data set [1] came out at 7.7 µM.

For `CCCCC(=O)c1c(-c2ccc3cc(OCC(=O)O)ccc3c2)oc2ccccc12` [Example 2, 2-{[6-(3-pentanoyl-1-benzofuran-2-yl)-2-naphthyl]oxy}acetic acid], the melting point is 130 to 132 °C. In addition, in data set [1], the inhibition at 25 µM was found to be 43%.

On to `CCCCC(=O)c1c(-c2ccc3cc(OCc4nnn[nH]4)ccc3c2)oc2ccccc12` [Example 3, 1-{2-[6-(1H-1,2,3,4-Tetraazol-5-ylmethoxy)-2-naphthyl]-1-benzofuran-3-yl}-1-pentanone], for which the melting point fell in the range of 150 to 151 °C. In addition, in data set [1], the IC50 stood at 12.7 µM.

`CCCCC(=O)c1c(-c2ccc3cc(OC(Cc4ccccc4)C(=O)O)ccc3c2)oc2ccccc12` (stereo not shown) [Example 4, 2-{[6-(3-Pentanoyl-1-benzofuran-2-yl)-2-naphthyl]oxy}-3-phenylpropanoic acid]: the melting point lay within 144 to 145 °C. On human PAI-1, this compound had a 50% inhibitory concentration (IC50) of 16.6 µM.

`CCCCC(=O)c1c(-c2ccc3c(Br)c(OCC(=O)O)ccc3c2)oc2ccccc12` [Example 5, 2-{[1-Bromo-6-(3-pentanoyl-1-benzofuran-2-yl)-2-naphthyl]oxy}acetic acid] returned a melting point of 146 to 147 °C. Also, the inhibition at 25 µM in data set [1] came to 47%.

`CC(C)(C)CC(=O)c1c(-c2ccc3cc(OCC(=O)O)ccc3c2)oc2ccccc12` [Example 6, 2-({6-[3-(3,3-Dimethylbutanoyl)-1-benzofuran-2-yl]-2-naphthyl}oxy)acetic acid] yielded a melting point of 207 to 209 °C. Moreover, at human PAI-1, the IC50 was 8.7 µM.

For `CC(C)CC(=O)c1c(-c2ccc3c(Br)c(OCC(=O)O)ccc3c2)oc2ccccc12` [Example 7], the IC50 in data set [1] came out at 14.7 µM.

As for `CC(C)CC(=O)c1c(-c2ccc3cc(OCC(=O)O)cc(Br)c3c2)oc2ccccc12` [Example 7], the melting point is 140 to 142 °C.

Compound `CC(C)(C)CC(=O)c1c(-c2ccc3c(Br)c(OCC(=O)O)ccc3c2)oc2ccccc12` [Example 8, 2-({1-Bromo-6-[3-(3,3-dimethylbutanoyl)-1-benzofuran-2-yl]-2-naphthyl}oxy)acetic acid] came in with a melting point of 151 to 153 °C. Further, in data set [1], the half-maximal inhibitory concentration (IC50) came to 11.9 µM.

Take `CC(C)CC(=O)c1c(-c2ccc3c(Br)c(OCc4nnn[nH]4)ccc3c2)oc2ccccc12` [Example 9, 1-{2-[5-Bromo-6-(1H-1,2,3,4-tetraazol-5-ylmethoxy)-2-naphthyl]-1-benzofuran-3-yl}-3-methyl-1-butanone]: the melting point fell in the range of 176 to 177 °C. On human PAI-1, the IC50 worked out at 18.7 µM.

Consider `O=C(O)COc1ccc2cc(-c3oc4ccccc4c3C(=O)CC3CCCC3)ccc2c1` [Example 10, 2-({6-[3-(2-Cyclopentylacetyl)-1-benzofuran-2-yl]-2-naphthyl}oxy)acetic acid], for which the melting point lay in the range of 177 to 178 °C.

As to `O=C(O)COc1ccc2cc(-c3oc4ccccc4c3CCC3CCCC3)ccc2c1Br` [Example 11, 2-({1-Bromo-6-[3-(2-cyclopentylethyl)-1-benzofuran-2-yl]-2-naphthyl}oxy)acetic acid], the melting point lay in the range of 155 to 156 °C. Also, in data set [1], the inhibition at 25 µM is 24%.

`Brc1c(OCc2nnn[nH]2)ccc2cc(-c3oc4ccccc4c3CCC3CCCC3)ccc12` [Example 12, 5-[({1-Bromo-6-[3-(2-cyclopentylethyl)-1-benzofuran-2-yl]-2-naphthyl}oxy)methyl]-1H-1,2,3,4-tetraazole] registered a melting point of 192 to 194 °C.

With `CCCCC(=O)c1c(-c2ccc3c(-c4ccc(C(F)(F)F)cc4)c(OCC(=O)O)ccc3c2)oc2ccccc12` [Example 15, 2-({6-(3-Pentanoyl-1-benzofuran-2-yl)-1-[4-(trifluoromethyl)phenyl]-2-naphthyl}oxy) acetic acid, sodium salt], the concentration for half-maximal inhibition (IC50) on human PAI-1 turned out to be 8.2 µM.

Compound `CCCCC(=O)c1c(-c2ccc3c(-c4ccc(C(F)(F)F)cc4)c(OCc4nnn[nH]4)ccc3c2)oc2ccccc12` [Example 18, 1-(2-{6-(1H-1,2,3,4-Tetraazol-5-ylmethoxy)-5-[4-(trifluoromethyl)phenyl]-2-naphthyl}-1-benzofuran-3-yl)-1-pentanone] had a melting point of 189 to 191 °C. The IC50 in data set [1] stood at 6 µM.

`CCCCC(=O)c1c(-c2ccc3c(Br)c(OC(Cc4ccccc4)C(=O)O)ccc3c2)oc2ccccc12` (stereo not shown) [Example 19, 2-{[1-Bromo-6-(3-pentanoyl-1-benzofuran-2-yl)-2-naphthyl]oxy}-3-phenylpropanoic acid] showed a melting point of 115 to 117 °C. In addition, the IC50 in data set [1] was determined as 6.2 µM.

Regarding `CCCCCc1c(-c2ccc3c(C)c(OCc4nnn[nH]4)ccc3c2)oc2ccccc12` [Example 21, 5-({[1-Methyl-6-(3-pentyl-1-benzofuran-2-yl)-2-naphthyl]oxy}methyl)-1H-1,2,3,4-tetraazole], the melting point was 169 to 171 °C (dec.). Moreover, the inhibition at 25 µM in data set [1] turned out to be 31%.

`O=C(O)COc1ccc2cc(-c3oc4ccccc4c3C(=O)c3ccccc3)ccc2c1` [Example 26, {[6-(3-benzoyl-1-benzofuran-2-yl)-2-naphthyl]oxy}acetic acid]: the melting point fell in the range of 178 to 181 °C. Besides, the inhibition at 25 µM in data set [1] stood at 49%.

As to `O=C(c1ccccc1)c1c(-c2ccc3c(Br)c(OCc4nnn[nH]4)ccc3c2)oc2ccccc12` [Example 27, {2-[5-Bromo-6-(1H-tetraazol-5-ylmethoxy)-2-naphthyl]-1-benzofuran-3-yl}(phenyl) methanone], the melting point is > 183 °C (dec.). The inhibition at 25 µM in data set [1] was found to be 35%.

The compound `O=C(O)C(Cc1ccccc1)Oc1ccc2cc(-c3oc4ccccc4c3Br)ccc2c1Br` (stereo not shown) [Example 28, 2-{[1-Bromo-6-(3-bromo-1-benzofuran-2-yl)-2-naphthyl]oxy}-3-phenylpropanoic acid] gave a melting point of 206 to 209 °C. Besides, in data set [1], the inhibition at 25 µM was found to be 56%.

In turn, `CCCCC(=O)c1c(-c2ccc3c(Br)c(OCc4nnn[nH]4)ccc3c2)oc2ccc(Cl)cc12` [Example 30, 1-{2-[5-Bromo-6-(1H-tetrazol-5-ylmethoxy)-naphthalen-2-yl]-5-chloro-benzofuran-3-yl}-pentan-1-one] registered a melting point of 133 to 135 °C. For the same compound, the inhibition at 25 µM in data set [1] was determined as 46%.

Compound `CCCCC(=O)c1c(-c2ccc3c(Br)c(OCC(=O)O)ccc3c2)oc2ccc(Cl)cc12` [Example 31, [1-Bromo-6-(5-chloro-3-pentanoyl-benzofuran-2-yl)-naphthalen-2-yloxy]-acetic acid] showed a melting point of 130 to 132 °C. Moreover, the IC50 in data set [1] amounted to 17.1 µM.

For the compound `CCCCC(=O)c1c(-c2ccc3cc(OCc4nnn[nH]4)ccc3c2)oc2ccc(Cl)cc12` [Example 32, 1-{5-Chloro-2-[6-(1H-tetrazol-5-ylmethoxy)-naphthalen-2-yl]-benzofuran-3-yl}-pentan-1-one], the melting point lay in the range of 178 to 180 °C. In addition, the inhibition at 25 µM in data set [1] amounted to 39%.

Regarding `CCCCC(=O)c1c(-c2ccc3cc(OCC(=O)O)ccc3c2)oc2ccc(Cl)cc12` [Example 33, [6-(5-Chloro-3-pentanoyl-benzofuran-2-yl)-naphthalen-2-yloxy]-acetic acid], the melting point was in the range of 158 to 160 °C. Further, in data set [1], the 50% inhibitory concentration (IC50) came to 10.4 µM.

With `CCCCCc1c(-c2ccc3cc(OCC(=O)O)ccc3c2)oc2ccccc12` [Example 35, [6-(3-Pentyl-benzofuran-2-yl)-naphthalen-2-yloxy]-acetic acid], the melting point lay within 163 to 165 °C. Besides, the IC50 in data set [1] is 4.39 µM.

Take `CCCCCc1c(-c2ccc3c(Br)c(OCc4nn[nH]n4)ccc3c2)oc2ccccc12` [Example 37]: in data set [1], the half-maximal inhibitory concentration (IC50) was found to be 4.59 µM.
